# Source: ChEMBL document CHEMBL5338773, “First-in-Class Selective Inhibitors of the Lysine Acetyltransferase KAT8” (J Med Chem, 2023)
# The source made the active and inactive calls. No cut-off for these calls is given here.
# Legend:
# [1] = target: Histone acetyltransferase KAT6A (Homo sapiens) (UniProt Q92794); experiment: Inhibition of recombinant human KAT6A (488 to 778 residues) using histone H3 peptide and [3H]-acetyl-coA as substrates at 200 uM incubated for 1 hrs by liquid scintillation counter analysis
# [2] = target: Histone acetyltransferase KAT7 (Homo sapiens) (UniProt O95251); experiment: Inhibition of recombinant human full length KAT7 using histone H3 peptide and [3H]-acetyl-coA as substrates at 200 uM incubated for 1 hrs by liquid scintillation counter analysis
# [3] = target: Histone deacetylase 3 (Homo sapiens) (UniProt O15379); experiment: Inhibition of human recombinant KDAC3 using Boc-Lys-(Ac)-AMC as substrate at 50 to 100 uM incubated for 45 mins by fluorescence microplate reader analysis; settings: dose 50-100 µM
# [4] = system: U-937; experiment: Antiproliferative activity against human U-937 cells assessed as cell proliferation inhibition at 10 to 100 uM incubated for 72 hrs by MTT assay; type: functional, cell-based; settings: dose 10-100 µM
# [5] = system: HCT-116; experiment: Antiproliferative activity against human HCT-116 cells assessed as cell proliferation inhibition at 100 uM incubated for 72 hrs by MTT assay; type: functional; set-up: scale not given: the % may be the effect or the level left
# [6] = system: MCF7; experiment: Antiproliferative activity against human MCF7 cells assessed as cell proliferation inhibition at 10 to 100 uM incubated for 72 hrs by MTT assay; type: functional, cell-based; settings: dose 10-100 µM
# [7] = GSH reactivity of compound at pH 7.5 buffer at 0.5 mM and measured upto 24 hrs in presence of DTT and BME by HPLC analysis; type: physicochemical; settings: pH 7.5, 24 h, 500 µM
# [8] = target: T1, Histone acetyltransferase KAT8 (Homo sapiens) (UniProt Q9H7Z6); experiment: Inhibition of human KAT8 in human HT-29 cells assessed as decrease in histone H4K16 acetylation level by measuring fluorescence intensity in nucleus at 50 uM incubated for 24 hrs by DAPI staining based immunofluorescence analysis; type: cell-based
# T1 sequence (whole entry): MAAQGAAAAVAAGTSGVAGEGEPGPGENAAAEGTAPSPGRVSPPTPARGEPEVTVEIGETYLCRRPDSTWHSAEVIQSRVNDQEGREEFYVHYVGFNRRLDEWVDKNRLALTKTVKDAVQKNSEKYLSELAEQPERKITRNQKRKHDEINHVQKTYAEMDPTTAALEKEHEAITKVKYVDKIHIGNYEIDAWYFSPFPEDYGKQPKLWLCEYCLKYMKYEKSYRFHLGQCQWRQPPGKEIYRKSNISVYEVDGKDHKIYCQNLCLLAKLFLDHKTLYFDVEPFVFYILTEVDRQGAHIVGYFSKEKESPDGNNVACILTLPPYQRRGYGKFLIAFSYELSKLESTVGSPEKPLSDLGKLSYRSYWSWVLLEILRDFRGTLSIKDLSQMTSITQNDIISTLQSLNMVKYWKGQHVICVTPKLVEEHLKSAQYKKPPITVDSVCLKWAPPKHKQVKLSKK
# [9] = system: HCT-116; experiment: Downregulation of HOXA9A mRNA expression in human HCT-116 cells at 100 uM incubated for 48 hrs by qRT-PCR analysis; type: functional, cell-based
# [10] = system: HeLa; experiment: Induction of autophagy in human HeLa cells stably expressing EGFP-LC3 assessed as change in LC3-II/LC3-I ratio at 10 to 100 uM incubated for 48 hrs by Western blot analysis; type: functional, cell-based; settings: dose 10-100 µM
# [11] = system: HeLa; experiment: Induction of autophagy in human HeLa cells stably expressing EGFP-LC3 assessed as increase in p62 expression level at 10 to 100 uM incubated for 48 hrs by Western blot analysis; type: functional, cell-based; settings: dose 10-100 µM
# Histone deacetylase 3 (Homo sapiens), sequence (O15379 whole entry): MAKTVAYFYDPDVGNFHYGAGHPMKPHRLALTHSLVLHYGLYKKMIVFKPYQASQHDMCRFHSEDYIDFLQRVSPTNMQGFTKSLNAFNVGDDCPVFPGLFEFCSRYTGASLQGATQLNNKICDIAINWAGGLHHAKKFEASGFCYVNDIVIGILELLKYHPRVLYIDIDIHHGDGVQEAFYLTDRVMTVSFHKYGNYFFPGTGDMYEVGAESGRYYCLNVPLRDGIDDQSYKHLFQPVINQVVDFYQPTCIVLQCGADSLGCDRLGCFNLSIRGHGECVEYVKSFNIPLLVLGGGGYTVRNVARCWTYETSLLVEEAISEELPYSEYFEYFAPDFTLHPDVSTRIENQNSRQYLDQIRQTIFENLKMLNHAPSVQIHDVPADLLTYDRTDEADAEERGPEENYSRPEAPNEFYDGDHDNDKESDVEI
# Histone acetyltransferase KAT7 (Homo sapiens), sequence (O95251 whole entry): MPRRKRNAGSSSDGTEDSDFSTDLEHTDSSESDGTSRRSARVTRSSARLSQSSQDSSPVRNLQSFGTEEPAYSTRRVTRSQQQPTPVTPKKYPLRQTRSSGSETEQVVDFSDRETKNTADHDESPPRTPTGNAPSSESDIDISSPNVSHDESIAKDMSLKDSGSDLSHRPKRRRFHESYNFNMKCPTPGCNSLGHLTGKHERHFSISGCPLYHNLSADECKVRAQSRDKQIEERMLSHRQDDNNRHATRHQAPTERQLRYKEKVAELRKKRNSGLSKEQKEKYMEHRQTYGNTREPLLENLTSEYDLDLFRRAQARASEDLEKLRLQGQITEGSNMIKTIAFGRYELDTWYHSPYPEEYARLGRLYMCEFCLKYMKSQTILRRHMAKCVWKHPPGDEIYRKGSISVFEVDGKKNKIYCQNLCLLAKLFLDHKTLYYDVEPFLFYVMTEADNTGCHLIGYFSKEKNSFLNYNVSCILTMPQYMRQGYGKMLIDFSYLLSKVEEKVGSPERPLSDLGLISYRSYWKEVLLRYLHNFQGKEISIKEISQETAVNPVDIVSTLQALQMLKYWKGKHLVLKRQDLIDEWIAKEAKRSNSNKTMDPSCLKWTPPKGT
# Histone acetyltransferase KAT6A (Homo sapiens), sequence (Q92794 whole entry, looked up, the tested form may be a part): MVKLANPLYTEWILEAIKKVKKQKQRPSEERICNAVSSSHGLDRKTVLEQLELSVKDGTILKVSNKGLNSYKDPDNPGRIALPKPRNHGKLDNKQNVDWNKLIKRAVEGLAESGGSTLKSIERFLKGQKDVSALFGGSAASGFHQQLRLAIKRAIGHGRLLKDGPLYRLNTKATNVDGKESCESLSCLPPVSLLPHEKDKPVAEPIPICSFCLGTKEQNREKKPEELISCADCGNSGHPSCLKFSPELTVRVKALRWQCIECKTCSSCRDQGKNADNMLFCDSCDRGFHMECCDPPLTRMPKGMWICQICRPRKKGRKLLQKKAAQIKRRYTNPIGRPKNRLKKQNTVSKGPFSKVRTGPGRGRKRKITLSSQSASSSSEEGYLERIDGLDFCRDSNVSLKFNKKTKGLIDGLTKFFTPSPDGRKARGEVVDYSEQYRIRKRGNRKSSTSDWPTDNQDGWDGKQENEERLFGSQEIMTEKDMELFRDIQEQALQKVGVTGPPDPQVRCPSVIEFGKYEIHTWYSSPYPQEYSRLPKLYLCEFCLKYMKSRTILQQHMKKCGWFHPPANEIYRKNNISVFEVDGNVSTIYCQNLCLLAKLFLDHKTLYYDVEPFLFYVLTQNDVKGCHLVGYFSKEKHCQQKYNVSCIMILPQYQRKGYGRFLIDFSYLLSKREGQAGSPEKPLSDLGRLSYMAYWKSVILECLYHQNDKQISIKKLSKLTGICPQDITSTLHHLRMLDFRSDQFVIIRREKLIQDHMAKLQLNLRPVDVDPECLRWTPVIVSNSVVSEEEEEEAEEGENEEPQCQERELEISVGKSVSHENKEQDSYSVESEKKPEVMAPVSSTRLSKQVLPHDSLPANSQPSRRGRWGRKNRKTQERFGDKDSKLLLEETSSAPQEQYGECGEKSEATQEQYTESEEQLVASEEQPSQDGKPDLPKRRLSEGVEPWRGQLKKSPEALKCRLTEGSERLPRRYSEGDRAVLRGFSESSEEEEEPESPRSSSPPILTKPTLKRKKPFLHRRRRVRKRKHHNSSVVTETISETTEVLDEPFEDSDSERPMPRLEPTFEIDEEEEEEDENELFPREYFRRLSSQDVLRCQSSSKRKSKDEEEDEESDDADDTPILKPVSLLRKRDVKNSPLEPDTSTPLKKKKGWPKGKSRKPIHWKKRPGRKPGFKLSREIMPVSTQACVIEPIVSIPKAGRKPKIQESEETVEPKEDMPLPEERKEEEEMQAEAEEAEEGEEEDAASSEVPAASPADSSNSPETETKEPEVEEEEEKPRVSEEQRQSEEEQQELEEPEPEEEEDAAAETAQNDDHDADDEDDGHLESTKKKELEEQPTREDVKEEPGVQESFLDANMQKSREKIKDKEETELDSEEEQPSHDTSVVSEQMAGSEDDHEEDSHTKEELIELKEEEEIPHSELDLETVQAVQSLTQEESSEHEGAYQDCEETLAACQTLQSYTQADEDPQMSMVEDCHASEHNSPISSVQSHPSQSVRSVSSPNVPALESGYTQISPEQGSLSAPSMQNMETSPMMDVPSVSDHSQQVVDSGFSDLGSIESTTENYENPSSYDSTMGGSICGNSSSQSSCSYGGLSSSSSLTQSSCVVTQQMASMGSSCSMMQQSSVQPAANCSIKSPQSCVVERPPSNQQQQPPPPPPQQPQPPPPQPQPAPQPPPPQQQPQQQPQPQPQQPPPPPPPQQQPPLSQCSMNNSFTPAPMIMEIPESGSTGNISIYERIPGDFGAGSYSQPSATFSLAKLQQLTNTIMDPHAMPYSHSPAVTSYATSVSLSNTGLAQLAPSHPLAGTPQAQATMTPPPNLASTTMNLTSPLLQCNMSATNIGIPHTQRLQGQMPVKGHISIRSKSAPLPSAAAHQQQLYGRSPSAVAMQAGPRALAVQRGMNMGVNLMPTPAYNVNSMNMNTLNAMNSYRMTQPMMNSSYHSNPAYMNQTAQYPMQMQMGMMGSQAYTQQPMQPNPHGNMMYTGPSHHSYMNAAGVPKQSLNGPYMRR
inhibition [1],inhibition [2],inhibition [3],Drug metabolism [7],inhibition [8],SMILES,Activity [4],Activity [5],Activity [6],Activity [9],Activity [10],Activity [11]
inactive,inactive,inactive,Not Active,,CC1=NN(c2ccc(C(=O)O)cc2)C(=O)/C1=C\c1ccc[nH]1,Dose-Dependent Effect,>80%,inactive,,,
,,inactive,Not Active,> 50%,O=C(O)c1ccc(N2N=C(c3ccccc3)/C(=C/c3ccc[nH]3)C2=O)cc1,Dose-Dependent Effect,,inactive,Active,Active,Active
